The values below are quoted from earlier work in patent EP3277282B1 (Istanbul Universitesi Rektorlugu, priority 2015, dated 2016).

For data set [1] the following is noted: given to human by oral route.

Turning to `Cc1nc(Nc2ncc(C(=O)Nc3c(C)cccc3Cl)s2)cc(N2CCN(CCO)CC2)n1` [Dasatinib, N-(2-chloro-6-methylphenyl)-2-[[6-[4-(2-hydroxyethyl)-1-piperazinyl]-2-methyl]-4-pyrimidinyl]amino]-5-thiazolecarboxamide mono-hydrate], the “solubility in ethanol, methanol and organic solvents” value is on record as “soluble”. The systemic side effects result in data set [1] is recorded as “bleeding in the intestines”.
